# Reference: patent US12077503B2, “Substituted cyclic amides and their use as herbicides” (FMC CORPORATION, priority 2015, dated 2024)
# Where two headings read alike, the source gives them in different places.
# How the values were obtained:
# Assay type in all cases: in vivo
# [1] = system: rice (Oryra sativa); assay: Test B flooded paddy test; settings: Oryza sativa, 250 g ai/ha, Flood, read-out: Rice plant response rating
# Procedure, shortened: (§1)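 Flooding to 3 cm over soil accompanied treatment, which consisted of adding compound to the standing water around 2-leaf plants; depth was then maintained. Visual assessment versus controls followed at 13 to 15 d (scale 0–100, 0 meaning no effect).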
# [2] = system: ducksalad (Heteranthera limosa); assay: Test B flooded paddy test; settings: Heteranthera limosa, 250 g ai/ha, Flood, read-out: Ducksalad plant response rating
# Procedure, shortened: as §1
# [3] = system: barnyardgrass (Echinochloa crus-galli); assay: Test B flooded paddy test; settings: Echinochloa crus-galli, 250 g ai/ha, Flood, read-out: Barnyardgrass plant response rating
# Procedure, shortened: as §1
# [4] = system: sedge, umbrella (small-flower umbrella sedge, Cyperus difformis); assay: Test B flooded paddy test; settings: Cyperus difformis, 250 g ai/ha, Flood, read-out: Sedge, Umbrella plant response rating
# Procedure, shortened: as §1
# [5] = system: Kochia (Kochia scoparia); assay: Test A postemergence; settings: Bassia scoparia, post-emergence, 240 h, postemergence; for pest or weed control at 125 g/ha: 125 g ai/ha
# Procedure, shortened: (§2)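 Seeds sprayed preemergence with a directed soil spray, or plants at 2 to 10 cm height and one- to two-leaf stage sprayed postemergence, with test chemicals in a non-phytotoxic solvent mixture containing surfactant, in loam soil–sand blend. Injury rated visually against untreated controls after about 10 d in greenhouse, 0 (no effect) to 100 (complete control).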
# [6] = system: corn (Zea mays); assay: Test A postemergence; settings: Zea mays, post-emergence, 240 h, postemergence; for Corn plant response rating (crop injury, 0 = no effect, 100 = complete kill) at 125 g/ha: visual injury after approximately 10 d, 0 to 100 scale (0 no effect, 100 complete control)
# Procedure, shortened: as §2
# [7] = system: pigweed (Amaranthus retroflexus); assay: Test A postemergence; settings: Amaranthus retroflexus, post-emergence, 240 h, postemergence; for pest or weed control at 125 g/ha: 125 g ai/ha
# Procedure, shortened: as §2
# [8] = system: blackgrass (Alopecurus myosuroides); assay: Test A postemergence; settings: Alopecurus myosuroides, post-emergence, 240 h, postemergence; for pest or weed control at 125 g/ha: 125 g ai/ha
# Procedure, shortened: as §2
# [9] = system: ryegrass, Italian (Italian ryegrass, Lolium multiflorum); assay: Test A postemergence; settings: Lolium multiflorum, post-emergence, 240 h, postemergence; for pest or weed control at 125 g/ha: 125 g ai/ha
# Procedure, shortened: as §2
# [10] = system: ragweed (common ragweed, Ambrosia elatior); assay: Test A postemergence; settings: Ambrosia artemisiifolia, post-emergence, 240 h, postemergence; for pest or weed control at 125 g/ha: 125 g ai/ha
# Procedure, shortened: as §2
# [11] = system: wheat (Triticum aestivum); assay: Test A postemergence; settings: Triticum aestivum, post-emergence, 240 h, postemergence; for plant injury at 125 g/ha: 125 g ai/ha
# Procedure, shortened: as §2
# [12] = system: barnyardgrass (Echinochloa crus-galli); assay: Test A postemergence; settings: Echinochloa crus-galli, post-emergence, 240 h, postemergence; for pest or weed control at 125 g/ha: 125 g ai/ha
# Procedure, shortened: as §2
# [13] = system: Galium (catchweed bedstraw, Galium aparine); assay: Test A postemergence; settings: Galium, post-emergence, 240 h, postemergence; for pest or weed control at 125 g/ha: 125 g ai/ha
# Procedure, shortened: as §2
# [14] = system: giant foxtail (Setaria faberii); assay: Test A postemergence; settings: Setaria faberi, post-emergence, 240 h, postemergence; for pest or weed control at 125 g/ha: 125 g ai/ha
# Procedure, shortened: as §2
# [15] = 0 to 100 scale where 0 is no effect and 100 is complete control
# [16] = scale of 0 to 100 where 0 is no effect and 100 is complete control
# [17] = visual injury after approximately 10 d, 0 to 100 scale (0 no effect, 100 complete control), read-out: Plant response rating, Kochia
# [18] = visual injury after approximately 10 d, 0 to 100 scale (0 no effect, 100 complete control), read-out: Plant response rating, Pigweed
# [19] = visual injury after approximately 10 d, 0 to 100 scale (0 no effect, 100 complete control), read-out: Plant response rating, Blackgrass
# [20] = visual injury after approximately 10 d, 0 to 100 scale (0 no effect, 100 complete control), read-out: Plant response rating, Ryegrass, Italian
# [21] = visual injury after approximately 10 d, 0 to 100 scale (0 no effect, 100 complete control), read-out: Plant response rating, Ragweed
# [22] = visual injury after approximately 10 d, 0 to 100 scale (0 no effect, 100 complete control), read-out: Plant response rating, Wheat
# [23] = visual injury after approximately 10 d, 0 to 100 scale (0 no effect, 100 complete control), read-out: Plant response rating, Barnyardgrass
# [24] = visual injury after approximately 10 d, 0 to 100 scale (0 no effect, 100 complete control), read-out: Plant response rating, Galium
# [25] = visual injury after approximately 10 d, 0 to 100 scale (0 no effect, 100 complete control), read-out: Plant response rating, Foxtail, Giant
smiles,measurement,setting,value
CN1C[C@H](c2cc(F)cc(C(F)(F)F)c2)[C@@H](C(=O)Nc2cccc(F)c2F)C1=O [Compound 1214],pest or weed control at 250 g/ha,[1]; [15],15%
same,pest or weed control at 250 g/ha,[2]; [15],100%
same,pest or weed control at 250 g/ha,[3]; [15],70%
same,pest or weed control at 250 g/ha,[4]; [15],60%
same,pest or weed control at 125 g/ha,"[5]; visual injury vs untreated controls after approx. 10 d, 0 = no effect, 100 = complete control, read-out: Kochia plant response rating (0 to 100 scale)",60%
same,pest or weed control at 500 g/ha,"[5]; 500 g ai/ha, 0 to 100 scale, 0 is no effect, 100 is complete control, read-out: Kochia plant response rating",80%
same,plant injury at 125 g/ha,"[6]; 125 g ai/ha, visual injury vs untreated controls after approx. 10 d, 0 = no effect, 100 = complete control, read-out: Corn plant response rating (0 to 100 scale)",80%
same,plant injury at 500 g/ha,"[6]; 500 g ai/ha, 0 to 100 scale, 0 is no effect, 100 is complete control, read-out: Corn plant response rating",90%
same,pest or weed control at 125 g/ha,"[7]; visual injury vs untreated controls after approx. 10 d, 0 = no effect, 100 = complete control, read-out: Pigweed plant response rating (0 to 100 scale)",30%
same,pest or weed control at 500 g/ha,"[7]; 500 g ai/ha, 0 to 100 scale, 0 is no effect, 100 is complete control, read-out: Pigweed plant response rating",60%
same,pest or weed control at 125 g/ha,"[8]; visual injury vs untreated controls after approx. 10 d, 0 = no effect, 100 = complete control, read-out: Blackgrass plant response rating (0 to 100 scale)",80%
same,pest or weed control at 500 g/ha,"[8]; 500 g ai/ha, 0 to 100 scale, 0 is no effect, 100 is complete control, read-out: Blackgrass plant response rating",80%
same,pest or weed control at 125 g/ha,"[9]; visual injury vs untreated controls after approx. 10 d, 0 = no effect, 100 = complete control, read-out: Ryegrass, Italian plant response rating (0 to 100 scale)",60%
same,pest or weed control at 500 g/ha,"[9]; 500 g ai/ha, 0 to 100 scale, 0 is no effect, 100 is complete control, read-out: Ryegrass, Italian plant response rating",80%
same,pest or weed control at 125 g/ha,"[10]; visual injury vs untreated controls after approx. 10 d, 0 = no effect, 100 = complete control, read-out: Ragweed plant response rating (0 to 100 scale)",0%
same,pest or weed control at 500 g/ha,"[10]; 500 g ai/ha, 0 to 100 scale, 0 is no effect, 100 is complete control, read-out: Ragweed plant response rating",30%
same,plant injury at 125 g/ha,"[11]; visual injury vs untreated controls after approx. 10 d, 0 = no effect, 100 = complete control, read-out: Wheat plant response rating (0 to 100 scale)",70%
same,plant injury at 500 g/ha,"[11]; 500 g ai/ha, 0 to 100 scale, 0 is no effect, 100 is complete control, read-out: Wheat plant response rating",80%
same,pest or weed control at 125 g/ha,"[12]; visual injury vs untreated controls after approx. 10 d, 0 = no effect, 100 = complete control, read-out: Barnyardgrass plant response rating (0 to 100 scale)",90%
same,pest or weed control at 500 g/ha,"[12]; 500 g ai/ha, 0 to 100 scale, 0 is no effect, 100 is complete control, read-out: Barnyardgrass plant response rating",90%
same,pest or weed control at 125 g/ha,"[13]; visual injury vs untreated controls after approx. 10 d, 0 = no effect, 100 = complete control, read-out: Galium plant response rating (0 to 100 scale)",60%
same,pest or weed control at 500 g/ha,"[13]; 500 g ai/ha, 0 to 100 scale, 0 is no effect, 100 is complete control, read-out: Galium plant response rating",60%
same,pest or weed control at 125 g/ha,"[14]; visual injury vs untreated controls after approx. 10 d, 0 = no effect, 100 = complete control, read-out: Foxtail, Giant plant response rating (0 to 100 scale)",90%
same,pest or weed control at 500 g/ha,"[14]; 500 g ai/ha, 0 to 100 scale, 0 is no effect, 100 is complete control, read-out: Foxtail, Giant plant response rating",90%
CS(=O)(=O)c1ccccc1NC(=O)[C@H]1C(=O)NC[C@@H]1c1ccc(OC(F)F)cc1 [Compound 787],pest or weed control at 250 g/ha,[1]; [16],0%
same,pest or weed control at 250 g/ha,[2]; [16],50%
same,pest or weed control at 250 g/ha,[3]; [16],0%
same,pest or weed control at 250 g/ha,[4]; [16],0%
same,pest or weed control at 125 g/ha,[5]; [17],60%
same,"Corn plant response rating (crop injury, 0 = no effect, 100 = complete kill) at 125 g/ha",[6]; 125 g ai/ha,0%
same,pest or weed control at 125 g/ha,[7]; [18],60%
same,pest or weed control at 125 g/ha,[8]; [19],0%
same,pest or weed control at 125 g/ha,[9]; [20],20%
same,pest or weed control at 125 g/ha,[10]; [21],50%
same,plant injury at 125 g/ha,[11]; [22],0%
same,pest or weed control at 125 g/ha,[12]; [23],30%
same,pest or weed control at 125 g/ha,[13]; [24],60%
same,pest or weed control at 125 g/ha,[14]; [25],20%
CSc1ccccc1NC(=O)[C@H]1C(=S)NC[C@@H]1c1ccc(C)c(C)c1 [Compound 766],pest or weed control at 250 g/ha,[1]; [16],0%
same,pest or weed control at 250 g/ha,[2]; [16],85%
same,pest or weed control at 250 g/ha,[3]; [16],0%
same,pest or weed control at 250 g/ha,[4]; [16],60%
same,pest or weed control at 125 g/ha,[5]; [17],0%
same,"Corn plant response rating (crop injury, 0 = no effect, 100 = complete kill) at 125 g/ha",[6]; 125 g ai/ha,0%
same,pest or weed control at 125 g/ha,[7]; [18],0%
same,pest or weed control at 125 g/ha,[8]; [19],0%
same,pest or weed control at 125 g/ha,[9]; [20],0%
same,pest or weed control at 125 g/ha,[10]; [21],0%
same,plant injury at 125 g/ha,[11]; [22],0%
same,pest or weed control at 125 g/ha,[12]; [23],10%
same,pest or weed control at 125 g/ha,[13]; [24],0%
same,pest or weed control at 125 g/ha,[14]; [25],0%
CN1C[C@H](c2cc(F)cc(F)c2)[C@@H](C(=O)Nc2ncccc2F)C1=O [Compound 783],pest or weed control at 250 g/ha,[1]; [16],0%
same,pest or weed control at 250 g/ha,[2]; [16],0%
same,pest or weed control at 250 g/ha,[3]; [16],0%
same,pest or weed control at 250 g/ha,[4]; [16],0%
same,pest or weed control at 125 g/ha,[5]; [17],0%
same,"Corn plant response rating (crop injury, 0 = no effect, 100 = complete kill) at 125 g/ha",[6]; 125 g ai/ha,0%
same,pest or weed control at 125 g/ha,[7]; [18],0%
same,pest or weed control at 125 g/ha,[8]; [19],0%
same,pest or weed control at 125 g/ha,[9]; [20],0%
same,pest or weed control at 125 g/ha,[10]; [21],0%
same,plant injury at 125 g/ha,[11]; [22],0%
same,pest or weed control at 125 g/ha,[12]; [23],0%
same,pest or weed control at 125 g/ha,[13]; [24],0%
same,pest or weed control at 125 g/ha,[14]; [25],0%
